Experimental data reported in patent US12370143B2, “Compound or salt thereof and lipid particles” (FUJIFILM Corporation, priority 2018, dated 2025).
Read-outs that look alike come from different tables or passages of the source.

Legend:
[1] = Particle size of nucleic acid lipid particles (Luc2-siRNA); type: physicochemical; conditions: compound/DSPC/cholesterol/DMG-PEG2000 50/10/38.5/1.5
Procedure, shortened: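 Particle size was read by ELS-Z2 light scattering on nucleic acid lipid particles after dialysis against PBS. These were made by micromixing Luc2-siRNA (19.7 μmol/L, pH 4 acetate) with ethanolic lipids (test lipid/DSPC/cholesterol/DMG-PEG2000 50/10/38.5/1.5, 20 mmol/L) at 3:1 water:oil, siRNA/lipid 339 mol/mol.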

[2] = Encapsulation rate of siRNA in nucleic acid lipid particles (Luc2-siRNA); type: physicochemical; conditions: compound/DSPC/cholesterol/DMG-PEG2000 50/10/38.5/1.5
Procedure, shortened: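 Encapsulation rate was calculated as (total − outer-phase siRNA)/total ×100. Total siRNA was quantified spectrophotometrically after lipid-dissolving ethanol precipitation, and unencapsulated siRNA by RiboGreen in TE (ex 485/em 535 nm). The particles were test lipid/DSPC/cholesterol/DMG-PEG2000 at 50/10/38.5/1.5, formed by microfluidic mixing with Luc2-siRNA at pH 4 and dialyzed against PBS.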

[3] = tested on: Factor VII (FVII) protein; assay: Measurement of Factor VII (FVII) protein in mouse plasma after FVII-siRNA lipid particles; type: in vivo, C57BL6/J mice; conditions: 0.1 mg/kg caudal vein, plasma 24 hours after administration, PBS group = 100%
Method: (§1) The Factor VII (FVII) protein was measured according to the method described in Nature Biotechnology (2010) 28, 172-176. C57BL6/J mice were randomly grouped (n=3). A dispersion liquid of nucleic acid lipid particles was prepared by the same method as that in <Preparation of nucleic acid lipid particles>, except that FVII-siRNA having the sequence described in Molecular Therapy (2009) 17, p. 878 was used instead of Luc-siRNA. The dispersion liquid was administered to the caudal vein of the mice at a dosage of 0.1 mg/kg. For comparison, PBS at the same volume was administered to the caudal vein of the mice. Twenty four hours after the administration, blood was collected from the caudal vena cava, thereby obtaining plasma. The amount of FVII protein was quantified using the obtained plasma and a Biophen FVII assay kit (Aniara).
The FVII amount in the plasma sample of each individual in the PBS administration group was regarded as 100%, and the ratio of the FVII amount in the plasma sample of each individual to 100% was adopted as a measurement value.

[4] = Particle size of nucleic acid lipid particles (FVII-siRNA); type: physicochemical
Method: The compounds described in Table 2, L-α-distearoylphosphatidylcholine (trade name: COATSOME® MC-8080; NOF corporation), cholesterol (trade name: Choesterol HP; NIPPON FINE CHEMICAL CO., LTD.), and 1,2-dimyristoyl-rac-glycero-3-(methylpolyoxyethylene 2000) (hereinafter, called DMG-PEG2000) (trade name: SUNBRIGHT® GM-020; NOF corporation) were dissolved in ethanol at a molar ratio of 50/10/38.5/1.5 such that the total lipid concentration became 20 mmol/L, thereby obtaining an oil phase.
An aqueous nucleic acid solution obtained by dissolving 5 mg of Luc2-siRNA having the sequence described in Biomacromolecules (2013) 14, p. 3905 in 1 mL of sterile water was diluted with 10 mmol/L acetate buffer having a pH 4 such that the nucleic acid concentration became 19.7 μmol/L, thereby obtaining a water phase. Then, the water phase and the oil phase were mixed together by a micromixer (see JP5288254B) using a syringe pump such that the volume ratio of water phase:oil phase became 3:1 (final ratio of siRNA/lipid=339 (mol/mol)), and the mixed solution was diluted 2× with PBS, thereby obtaining a dispersion liquid of nucleic acid lipid particles. The dispersion liquid was dialyzed (Slide-A-Lyzer G2, MWCO: 10 kD, Thermo Fisher Scientific) using a phosphate buffered saline such that ethanol was removed, thereby obtaining nucleic acid lipid particles.
The particle size of the nucleic acid lipid particles was measured by the same method as that in <Preparation of lipid particles>.
as §1

[5] = Nucleic acid encapsulation rate of nucleic acid lipid particles (FVII-siRNA); type: physicochemical
Method: A 3 mol/L aqueous sodium acetate solution (30 μL) and 9 μL of glycogen were added to 60 μL of the lipid particles retaining nucleic acids, and then 1.5 mL of ethanol was added thereto such that only the nucleic acids were precipitated while the lipid was dissolved. Then, the supernatant was removed by centrifugation. After the precipitates were air-dried for 15 minutes or longer, water was added thereto such that the precipitates were redissolved, and the concentration thereof was measured using Nanodrop NF1000 (Thermo Fisher Scientific), thereby quantifying the total nucleic acid concentration.
The nucleic acid concentration was quantified using a Quant-iT RiboGreen RNA Assay Kit (Thermo Fisher Scientific) according to the protocol. First, a 20×TE buffer included in the above kit was diluted with water, thereby obtaining a 1×TE buffer. TE represents Tris/EDTA (ethylenediaminetetraacetic acid). In order to quantify only the nucleic acid in the outer water phase, the dispersion liquid of lipid particles retaining nucleic acids was diluted 10,000× with the 1×TE buffer.
The 10,000× diluted dispersion liquid of lipid particles (100 μL) was put in a 96-well plate, then 100 μL of a RiboGreen reagent (reagent included in the Quanti-iT Ribogreen RNA Assay Kit described above) diluted 2000× with the 1×TE buffer was added to a sample, and fluorescence (excitation wavelength: 485 nm, fluorescence wavelength: 535 nm) was measured using a plate reader Infinit EF200 (TECAN), thereby quantifying the nucleic acid concentration in the outer water phase.
By using the total nucleic acid concentration obtained through the above steps and the quantified nucleic acid concentration in the outer water phase, the nucleic acid encapsulation rate of the nucleic acid lipid particles was calculated according to the following Equation. Nucleic acid encapsulation rate (%)=(total nucleic acid concentration−nucleic acid concentration in outer water phase)/total nucleic acid concentration×100 The results are shown in Table 2.
as §1

[6] = tested on: DMS273 cells constantly expressing Luc; assay: Target reporter protein (Luc) knockdown in cell, reporter protein assay; type: cell-based; conditions: Homo sapiens, DMS-273
Procedure, shortened: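 Nucleic acid lipid particles added at final 0.1 to 100 nmol/L to DMS273 human SCLC cells stably expressing Luc2, 24 hr exposure then 24 hr further culture after medium change. Luc quantified by Steady Glo luminescence after viable cell count; knockdown efficiency calculated and IC50 taken as concentration giving 50% Luc reduction.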

Structure (SMILES)	Particle size (nm) [1]	Nucleic acid encapsulation rate [2]	Particle size (nm) [4]	Nucleic acid encapsulation rate [5]	IC50 ([6]; Luc2-siRNA lipid particles using the compound, siRNA 0.1 to 100 nmol/L, concentration at which Luc expression is knocked down to 50%, read-out: IC50)	Relative amount of FVII protein (%) [3]	IC50 [6]
CCCCC/C=C\C/C=C\CCCCCCCCC(CCCCCCCC/C=C\C/C=C\CCCCC)OC(=O)OCCCN(C)C [Comparative Example 8, 3-(Dimethylamino)propyl((6Z,9Z,28Z,31Z)-heptatriaconta-6,9,28,31-tetraen-19-yl)carbonate, reference compound]	63.1 nm	59%	63.4 nm	78%		58%	
CCCCC/C=C\C/C=C\CCCCCCCCC(CCCCCCCC/C=C\C/C=C\CCCCC)N(C)CCN(C)C [Comparative Example 9, N1-((6Z,9Z,28Z,31Z)-heptatriaconta-6,9,28,31-tetraen-19-yl)-N1,N2,N2-trimethylethane-1,2-diamine, reference compound]	58.4 nm	84%	60 nm	71%		44%	
CCCCC/C=C\C/C=C\CCCCCCCCC(CCCCCCCC/C=C\C/C=C\CCCCC)OC(=O)OCCN(CCCCCC)CCN(C)C [Example 37, 2-((2-(Dimethylamino)ethyl)(hexyl)amino)ethyl((6Z,9Z,28Z,31Z)-heptatriaconta-6,9,28,31-tetraen-19-yl)carbonate]	80.4 nm	85%	74.5 nm	100%		17%	
CCCCC/C=C\C/C=C\CCCCCCCCC(CCCCCCCC/C=C\C/C=C\CCCCC)OC(=O)OCCN(CCCC)CCN(C)C [Example 38, 2-(Butyl(2-(dimethylamino)ethyl)amino)ethyl((6Z,9Z,28Z,31Z)-heptatriaconta-6,9,28,31-tetraen-19-yl)carbonate]	94.2 nm	87%	67.9 nm	100%		16%	
CCCCC/C=C\C/C=C\CCCCCCCCC(CCCCCCCC/C=C\C/C=C\CCCCC)OC(=O)OCCN(CCN(CC)CC)C(C)C [Example 42, 2-((2-(Diethylamino)ethyl)(isopropyl)amino)ethyl((6Z,9Z,28Z,31Z)-heptatriaconta-6,9,28,31-tetraen-19-yl)carbonate]	70 nm	78%	68.1 nm	70%		9%	
CCCCCCCCC(CCCCCCCC)C(=O)OCCCCCCC(CCCCCCOC(=O)C(CCCCCCCC)CCCCCCCC)OC(=O)OCCN(CC)CCN(CC)CC [Example 74, 7-(((2-((2-(Diethylamino)ethyl)(ethyl)amino)ethoxy)carbonyl)oxy)tridecane-1,13-diylbis(2-octyldecanoate)]						4%	22 nM
CCCCCCCC(CCCCCCC)C(=O)OCCCCCCC(CCCCCCOC(=O)C(CCCCCCC)CCCCCCC)OC(=O)OCCN(CC)CCN(CC)CC [Example 76, 7-(((2-((2-(Diethylamino)ethyl)(ethyl)amino)ethoxy)carbonyl)oxy)tridecane-1,13-diylbis(2-heptylnonanoate)]					18 nM	4%	
CCCCCCC(CCCCCC)C(=O)OCCCCCCC(CCCCCCOC(=O)C(CCCCCC)CCCCCC)OC(=O)OCCN(CC)CCN(CC)CC [Example 77, 7-(((2-((2-(Diethylamino)ethyl)(ethyl)amino)ethoxy)carbonyl)oxy)tridecane-1,13-diylbis(2-hexyloctanoate)]	81.9 nm	88%	81.2 nm	76%		3%	

Continued, in another order:

Particle size (nm) [1]	Nucleic acid encapsulation rate [2]	Particle size (nm) [4]	Nucleic acid encapsulation rate [5]	IC50 ([6]; Luc2-siRNA lipid particles using the compound, siRNA 0.1 to 100 nmol/L, concentration at which Luc expression is knocked down to 50%, read-out: IC50)	Structure (SMILES)	Relative amount of FVII protein (%) [3]	IC50 [6]
83.6 nm	82%	85.4 nm	88%		CCCCCCCCC(CCCCCC)COC(=O)CCCC(CCCCCC)OC(=O)OCCN(CCN(CC)CC)C(C)C (centres unmarked) [Example 83, 2-Hexyldecyl 3-ethyl-12-hexyl-6-isopropyl-10-oxo-9,11-dioxa-3,6-diazahexadecan-16-oate]	13%	
67.1 nm	74%	69.2 nm	88%		CCCCCCCCCCCC(=O)OCCN(CCOC(=O)OC(CCCCCC)CCCCCCCCC(=O)OCC(CCCC)CCCCCC)CCN(CC)CC (centres unmarked) [Example 86, 2-butyloctyl 6-(2-(dodecanoyloxy)ethyl)-3-ethyl-12-hexyl-10-oxo-9,11-dioxa-3,6-diazahenicosan-21-oate]	15%	
68.2 nm	83%	77.3 nm	94%		CCCCCCCCC(CCCCCC)COC(=O)CCCCCCCCC(CCCCCC)OC(=O)OCCN(CCN(CC)CC)C(C)C (centres unmarked) [Example 89, 2-Hexyldecyl 3-ethyl-12-hexyl-6-isopropyl-10-oxo-9,11-dioxa-3,6-diazahenicosan-21-oate]	8%	
75.0 nm	69%	66.5 nm	76%		CCCCCCCC/C=C\CCCCCCCC(=O)OCCN(CCOC(=O)OC(CCCCCC)CCCCCCCCC(=O)OCC(CCCC)CCCCCC)CCN(CC)CC (centres unmarked) [Example 91, 2-Butyloctyl 3-ethyl-12-hexyl-6-(2-(oleoyloxy)ethyl)-10-oxo-9,11-dioxa-3,6-diazahenicosan-21-oate]	9%	
74.9 nm	82%	68.3 nm	76%		CCCCCCCCCC(=O)OCCN(CCOC(=O)OC(CCCCCC)CCCCCCCCC(=O)OCC(CCCCCC)CCCCCCCC)CCN(CC)CC (centres unmarked) [Example 98, 2-Hexyldecyl 6-(2-(decanoyloxy)ethyl)-3-ethyl-12-hexyl-10-oxo-9,11-dioxa-3,6-diazahenicosan-21-oate]	2%	
